Assay results published in patent publication US20210322395A1, “METHOD TO PREVENT AND TREAT HEARING LOSS BY CALCIUM CHANNEL BLOCKERS, ANGIOTENSIN CONVERTING ENZYME INHIBITORS, AND ANGIOTENSIN RECEPTOR BLOCKERS” (priority 2018, published 2021).

Legend:
[1] = tested on: hearing loss; assay: Treatment of hearing loss in a patient, one ear treated, other ear untreated; format: in vivo, human
Description: A patient is diagnosed with hearing loss of the same magnitude in both ears. A composition comprising the calcium channel blocker nifedipine is directly applied to the external ear space of one ear while the other ear is left untreated. […] A patient is diagnosed with hearing loss of the same magnitude in both ears. A composition comprising the ACE inhibitor enalapril is directly applied to the external ear space of one ear while the other ear is left untreated. […] A patient is diagnosed with hearing loss of the same magnitude in both ears. A composition comprising the angiotensin receptor blocker losartan is directly applied to the external ear space of one ear while the other ear is left untreated. […] A patient is diagnosed with hearing loss of the same magnitude in both ears. A composition comprising the calcium channel blocker nifedipine is administered by injection into the middle ear space of one ear while the other ear is left untreated. […] A patient is diagnosed with hearing loss of the same magnitude in both ears. A composition comprising the ACE inhibitor enalapril is administered by injection into the middle ear space of one ear while the other ear is left untreated. […] A patient is diagnosed with hearing loss of the same magnitude in both ears. A composition comprising the angiotensin receptor blocker losartan is administered by injection into the middle ear space of one ear while the other ear is left untreated. […] A patient is diagnosed with hearing loss of the same magnitude in both ears. A composition comprising the calcium channel blocker nifedipine is administered by injection into the inner ear space of one ear while the other ear is left untreated. […] A patient is diagnosed with hearing loss of the same magnitude in both ears. A composition comprising the ACE inhibitor enalapril is administered by injection into the inner ear space of one ear while the other ear is left untreated. […] A patient is diagnosed with hearing loss of the same magnitude in both ears. A composition comprising the angiotensin receptor blocker losartan is administered by injection into the inner ear space of one ear while the other ear is left untreated.

[2] = tested on: hearing loss; assay: Prevention of recurrence of hearing loss in a successfully treated patient, one ear treated, other ear untreated; format: in vivo, human; conditions: patient after successful treatment, untreated side again exhibits symptoms
Description: A composition comprising the calcium channel blocker nifedipine is directly applied to the external ear space of one ear while the other ear is left untreated. […] A composition comprising the ACE inhibitor enalapril is directly applied to the external ear space of one ear while the other ear is left untreated. […] A composition comprising the angiotensin receptor blocker losartan is directly applied to the external ear space of one ear while the other ear is left untreated. […] A composition comprising the calcium channel blocker nifedipine is administered by injection into the middle ear space of one ear while the other ear is left untreated. […] A composition comprising the ACE inhibitor enalapril is administered by injection into the middle ear space of one ear while the other ear is left untreated. […] A composition comprising the angiotensin receptor blocker losartan is administered by injection into the middle ear space of one ear while the other ear is left untreated. […] A composition comprising the calcium channel blocker nifedipine is administered by injection into the inner ear space of one ear while the other ear is left untreated. […] A composition comprising the ACE inhibitor enalapril is administered by injection into the inner ear space of one ear while the other ear is left untreated. […] A composition comprising the angiotensin receptor blocker losartan is administered by injection into the inner ear space of one ear while the other ear is left untreated.

[3] = composition directly applied to the external ear space of one ear
[4] = composition injected into the inner ear space of one ear
[5] = composition injected into the middle ear space of one ear

SMILES | hearing loss of treated ear compared to untreated ear [1, 3] | hearing loss of treated ear compared to untreated ear [1, 4] | hearing loss of treated ear compared to untreated ear [1, 5] | level of hearing of treated ear after a period of time (recurrence of hearing loss) [2, 3] | level of hearing of treated ear after a period of time (recurrence of hearing loss) [2, 4] | level of hearing of treated ear after a period of time (recurrence of hearing loss) [2, 5]
CCCCc1nc(Cl)c(CO)n1Cc1ccc(-c2ccccc2-c2nn[nH]n2)cc1 [losartan] | reduced hearing loss | reduced hearing loss | reduced hearing loss | maintained the level of hearing | maintained the level of hearing | maintained the level of hearing
CCOC(=O)[C@H](CCc1ccccc1)N[C@@H](C)C(=O)N1CCC[C@H]1C(=O)O [enalapril] | reduced hearing loss | reduced hearing loss | reduced hearing loss | maintained the level of hearing | maintained the level of hearing | maintained the level of hearing
